Results taken from ChEMBL document CHEMBL5233229, “Recent advances in the development of ubiquitin-specific-processing protease 7 (USP7) inhibitors” (Eur J Med Chem, 2020).
pEC50, pIC50: −log10 of the molar value. Where “and” joins values, the source holds several entries; their conditions need not be identical. Identical values can stand only once.

Tests used:
[1] = target: T1, Ubiquitin carboxyl-terminal hydrolase 47 (Homo sapiens, UniProt Q96K76); assay: Inhibition of human USP47 using Ub-EKL as substrate by SDS-PAGE assay
T1 sequence (Q96K76 whole entry): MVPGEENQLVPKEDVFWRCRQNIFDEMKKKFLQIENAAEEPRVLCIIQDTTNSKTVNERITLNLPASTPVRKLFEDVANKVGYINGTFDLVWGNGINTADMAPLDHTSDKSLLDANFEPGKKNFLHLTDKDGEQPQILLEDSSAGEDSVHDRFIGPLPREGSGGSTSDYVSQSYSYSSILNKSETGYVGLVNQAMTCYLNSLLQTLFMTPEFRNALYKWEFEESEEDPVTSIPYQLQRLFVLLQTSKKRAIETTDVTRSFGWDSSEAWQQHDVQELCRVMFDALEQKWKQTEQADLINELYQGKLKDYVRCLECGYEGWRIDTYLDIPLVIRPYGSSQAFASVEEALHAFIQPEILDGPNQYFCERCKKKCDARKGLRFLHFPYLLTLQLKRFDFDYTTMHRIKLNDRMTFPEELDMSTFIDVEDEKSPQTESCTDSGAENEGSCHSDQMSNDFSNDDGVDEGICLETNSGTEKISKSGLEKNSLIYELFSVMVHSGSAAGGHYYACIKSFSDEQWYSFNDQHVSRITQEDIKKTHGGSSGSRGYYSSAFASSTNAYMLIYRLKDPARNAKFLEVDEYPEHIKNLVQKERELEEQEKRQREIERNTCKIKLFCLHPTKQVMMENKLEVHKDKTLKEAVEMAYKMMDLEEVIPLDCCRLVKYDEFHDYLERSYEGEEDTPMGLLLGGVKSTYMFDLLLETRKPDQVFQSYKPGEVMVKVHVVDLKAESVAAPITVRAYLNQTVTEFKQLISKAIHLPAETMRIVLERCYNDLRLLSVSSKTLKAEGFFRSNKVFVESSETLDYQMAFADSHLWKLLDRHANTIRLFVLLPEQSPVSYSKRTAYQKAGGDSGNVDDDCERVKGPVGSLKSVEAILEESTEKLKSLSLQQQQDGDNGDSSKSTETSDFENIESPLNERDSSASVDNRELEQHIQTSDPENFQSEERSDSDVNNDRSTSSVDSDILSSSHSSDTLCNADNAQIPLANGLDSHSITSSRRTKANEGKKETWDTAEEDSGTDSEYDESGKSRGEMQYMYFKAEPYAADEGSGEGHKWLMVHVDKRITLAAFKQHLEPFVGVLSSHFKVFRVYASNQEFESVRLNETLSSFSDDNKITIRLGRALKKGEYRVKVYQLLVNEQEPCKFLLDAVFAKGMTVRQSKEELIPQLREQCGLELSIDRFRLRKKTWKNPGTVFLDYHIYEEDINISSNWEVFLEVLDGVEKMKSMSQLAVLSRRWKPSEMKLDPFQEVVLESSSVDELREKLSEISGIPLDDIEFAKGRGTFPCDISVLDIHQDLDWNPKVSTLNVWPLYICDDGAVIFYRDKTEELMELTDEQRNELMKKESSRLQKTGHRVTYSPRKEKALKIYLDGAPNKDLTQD

[2] = target: T2, Ubiquitin carboxyl-terminal hydrolase 7 (Homo sapiens, UniProt Q93009); assay: Inhibition of human USP7 using Ub-EKL as substrate by SDS-PAGE assay
T2 sequence (Q93009 whole entry): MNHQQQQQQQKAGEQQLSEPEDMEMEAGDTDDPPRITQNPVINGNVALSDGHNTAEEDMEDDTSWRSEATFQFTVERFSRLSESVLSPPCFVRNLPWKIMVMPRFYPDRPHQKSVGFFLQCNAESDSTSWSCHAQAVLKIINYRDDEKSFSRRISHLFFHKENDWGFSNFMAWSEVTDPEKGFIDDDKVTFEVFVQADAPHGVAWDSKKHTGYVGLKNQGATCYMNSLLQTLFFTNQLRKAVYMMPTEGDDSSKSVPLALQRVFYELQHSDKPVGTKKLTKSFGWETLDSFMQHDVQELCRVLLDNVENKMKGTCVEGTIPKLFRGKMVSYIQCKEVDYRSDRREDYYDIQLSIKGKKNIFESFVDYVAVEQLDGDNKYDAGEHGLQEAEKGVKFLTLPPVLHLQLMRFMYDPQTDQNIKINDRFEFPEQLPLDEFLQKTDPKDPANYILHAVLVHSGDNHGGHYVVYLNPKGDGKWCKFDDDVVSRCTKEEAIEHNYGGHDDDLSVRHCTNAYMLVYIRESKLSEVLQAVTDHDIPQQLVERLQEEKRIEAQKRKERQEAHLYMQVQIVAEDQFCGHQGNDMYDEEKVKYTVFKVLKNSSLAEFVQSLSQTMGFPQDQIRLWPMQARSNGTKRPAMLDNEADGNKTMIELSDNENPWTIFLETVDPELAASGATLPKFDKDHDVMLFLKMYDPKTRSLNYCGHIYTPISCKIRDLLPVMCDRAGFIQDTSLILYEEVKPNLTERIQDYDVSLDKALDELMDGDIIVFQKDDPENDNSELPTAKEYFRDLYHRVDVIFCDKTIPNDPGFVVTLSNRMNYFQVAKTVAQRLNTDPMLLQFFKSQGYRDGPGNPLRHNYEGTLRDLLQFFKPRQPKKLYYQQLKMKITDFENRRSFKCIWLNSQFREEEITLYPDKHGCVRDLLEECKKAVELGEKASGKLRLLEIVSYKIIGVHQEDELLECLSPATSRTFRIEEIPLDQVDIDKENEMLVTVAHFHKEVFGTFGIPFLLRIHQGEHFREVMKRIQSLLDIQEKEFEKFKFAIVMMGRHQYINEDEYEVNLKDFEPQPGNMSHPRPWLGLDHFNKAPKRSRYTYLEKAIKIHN

[3] = target: T2, Ubiquitin carboxyl-terminal hydrolase 7; assay: Inhibition of human USP7 using ubiquitin-Rh110 as substrate incubated for 30 mins by Fluorometric plate reader analysis
[4] = target: T2, Ubiquitin carboxyl-terminal hydrolase 7; assay: Inhibition of human USP7 using Ub-AMC as substrate
[5] = target: T2, Ubiquitin carboxyl-terminal hydrolase 7; assay: Inhibition of human USP7 using human N-terminal GST-tagged UBA52 as substrate preincubated for 10 mins followed by substrate addition measured after 45 mins by coomassie brilliant blue staining-based SDS-PAGE analysis

Row | Compound | pEC50 [1] | pEC50 [2] | also measured
1 | COCCNC1CS(=O)(=O)c2cc(NC(=O)c3cc([N+](=O)[O-])c(Sc4c(Cl)cncc4Cl)s3)ccc21 (stereo unspecified) | 5.70 | 6.10 | 
2 | CS(=O)(=O)c1cccc(NC(=O)c2cc([N+](=O)[O-])c(Sc3c(Cl)cncc3Cl)s2)c1 | 5.85 | 6.29 | 
3 | C[C@@]12CCCc3coc(c31)C(=O)c1cc3c(cc12)C(=O)C=C(c1cc(OS(=O)(=O)O)c2cc4c(cc2c1O)C(=O)c1occ2c1[C@@]4(C)CCC2)C3=O |  |  | pIC50 [3]: 5.92
4 | C[C@@]12CCCc3coc(c31)C(=O)c1cc3c(cc12)CC1=C2N(CCS1(=O)=O)[C@H](O)C[C@@]23O |  |  | pIC50 [3]: < 5.30
5 | O=C(NC1CCS(=O)(=O)c2ccccc21)c1cc([N+](=O)[O-])c(Sc2c(Cl)cncc2Cl)s1 (stereo unspecified) | 5.80 | 6.09 | 
6 | O=C(c1cc([N+](=O)[O-])c(Sc2c(Cl)cncc2Cl)s1)N1CCS(=O)(=O)CC1 | 5.19 | 5.37 | 
7 | O=C(NC1CCS(=O)(=O)CC1)c1cc([N+](=O)[O-])c(Sc2c(Cl)cncc2Cl)s1 | 5.46 | 5.68 | 
8 | CN(C)CCNC1CS(=O)(=O)c2cc(NC(=O)c3cc([N+](=O)[O-])c(Sc4c(Cl)cncc4Cl)s3)ccc21 (stereo unspecified) | 6.70 | 6.66 | 
9 | O=C(CCc1ccccc1)N1CCC(O)(Cn2cnc3cc(Cl)ccc3c2=O)C1 (stereo unspecified) |  |  | pIC50 [4]: < 4.00
10 | CC(CC(=O)N1CCC(O)(Cn2cnc3cc(NC(=O)CCn4ccnc4)ccc3c2=O)CC1)c1ccccc1 (stereo unspecified) |  |  | pIC50 [4]: 6.62
11 | CS(=O)(=O)c1ccccc1NC(=O)c1cc([N+](=O)[O-])c(Sc2c(Cl)cncc2Cl)s1 | 5.03 | 6.07 | 
12 | O=c1c2ccc(Cl)cc2ncn1CC1(O)CCN(CCCc2ccccc2)CC1 |  |  | pIC50 [4]: < 4.00
13 | N#Cc1cc(C(=O)Nc2ccc3c(c2)S(=O)(=O)C=C3)sc1Sc1c(Cl)cncc1Cl | 5.29 | 6.23 | 
14 | C[C@H](CC(=O)N1CCC(O)(Cn2cnc3cc(NC(=O)CCN4CCN(C)CC4)ccc3c2=O)CC1)c1ccccc1 |  |  | pIC50 [4]: 6.72
15 | CS(=O)(=O)c1ccc(NC(=O)c2cc([N+](=O)[O-])c(Sc3c(Cl)cncc3Cl)s2)cc1 | 4.93 | 5.17 | 
16 | C=C(C)[C@@H]1CC[C@]2(C)CC[C@]3(C)[C@H](CC[C@@H]4[C@@]5(C)CC[C@H](O)C(C)(C)[C@@H]5CC[C@]43C)[C@H]2C1 |  |  | pIC50 [5]: < 4.30
17 | C[C@H]1[C@H](C)CC[C@]2(C(=O)O)CC[C@]3(C)C(=CC[C@@H]4[C@@]5(C)C[C@@H](O)[C@H](O)[C@@](C)(CO)[C@@H]5[C@H](O)C[C@]43C)[C@H]12 [MADECASSIC ACID] |  |  | pIC50 [5]: < 4.30
18 | CC(CC(=O)N1CCC(O)(Cn2cnc3cc(Cl)ccc3c2=O)CC1)c1ccccc1 (stereo unspecified) |  |  | pIC50 [4]: 5.89
19 | C[C@H](CC(=O)N1CCC(O)(Cn2cnc3cc(NC(=O)CCN4CCOCC4)ccc3c2=O)CC1)c1ccccc1 |  |  | pIC50 [4]: 6.32
20 | O=C(Nc1ccc2c(c1)S(=O)(=O)C=C2)c1cc([N+](=O)[O-])c(Sc2c(Cl)cncc2Cl)s1 | 5.88 | 7.00 | 
21 | CC1CS(=N)(=O)c2cc(NC(=O)c3cc([N+](=O)[O-])c(Sc4c(Cl)cncc4Cl)s3)ccc21 (stereo unspecified) | 5.96 | 6.33 | 
22 | O=C(Nc1ccc2c(c1)S(=O)(=O)CC2)c1cc([N+](=O)[O-])c(Sc2c(Cl)cncc2Cl)s1 | 5.69 | 6.89 | 
23 | CC(=O)N1CCC(O)(Cn2cnc3cc(Cl)ccc3c2=O)CC1 |  |  | pIC50 [4]: < 4.00
24 | CC1=CS(=O)(=O)c2cc(NC(=O)c3cc([N+](=O)[O-])c(Sc4c(Cl)cncc4Cl)s3)ccc21 | 6.44 | 6.77 | 
25 | C[C@H]1[C@H](C)CC[C@]2(C(=O)O)CC[C@]3(C)C(=CC[C@@H]4[C@@]5(C)C[C@@H](O)[C@H](O)[C@@](C)(CO)[C@@H]5CC[C@]43C)[C@H]12 [ASIATIC ACID] |  |  | pIC50 [5]: < 4.30

Row | Compound | pEC50 [1] | pEC50 [2] | also measured
26 | O=C(NC1CCS(=O)(=O)C2COCCC12)c1cc([N+](=O)[O-])c(Sc2c(Cl)cncc2Cl)s1 (stereo unspecified) | 5.39 | 5.32 | 
27 | CCS(=O)(=O)c1cccc(NC(=O)c2cc([N+](=O)[O-])c(Sc3c(Cl)cncc3Cl)s2)c1 | 6.03 | 6.38 | 
28 | O=C(Nc1cccc(S(=O)(=O)CC2CC2)c1)c1cc([N+](=O)[O-])c(Sc2c(Cl)cncc2Cl)s1 | 5.82 | 6.41 | 
29 | CC1(C)CCC2(C(=O)O)CCC3=C([C@@H](CCl)C[C@@H]4[C@@]5(C)C[C@H](O)[C@H](O)[C@](C)(C(=O)O)[C@@H]5CC[C@]34C)[C@@H]2C1 (single isomer, unassigned) |  |  | pIC50 [5]: < 4.30
30 | CC1(C)CC[C@]2(C(=O)O)CC[C@]3(C)C(=CC[C@@H]4[C@@]5(C)CC[C@H](O)C(C)(C)[C@@H]5CC[C@]43C)[C@@H]2C1 [OLEANOLIC_ACID] |  |  | pIC50 [5]: 4.90
31 | CS(=N)(=O)c1cccc(NC(=O)c2cc([N+](=O)[O-])c(Sc3c(Cl)cncc3Cl)s2)c1 (stereo unspecified) | 5.66 | 5.70 | 
32 | CC(CC(=O)N1CCC(O)(Cn2cnc3cc(NC(=O)CCN4CCN(C)CC4)ccc3c2=O)CC1)c1ccccc1 (stereo unspecified) |  |  | pIC50 [4]: 6.25
33 | COC(=O)[C@]12CC[C@@H](C)[C@H](C)[C@H]1C1=CC[C@@H]3[C@@]4(C)CC[C@H](O)C(C)(C)[C@@H]4CC[C@@]3(C)[C@]1(C)CC2 [METHYL URSOLATE] |  |  | pIC50 [5]: < 4.30
34 | CS(=O)(=O)Nc1cccc(NC(=O)c2cc([N+](=O)[O-])c(Sc3c(Cl)cncc3Cl)s2)c1 | 5.89 | 6.19 | 
35 | CC1(C)CC[C@]2(C(=O)O)CC[C@]3(C)C(=CC[C@@H]4[C@@]5(C)C[C@H](O)[C@H](O)[C@@](C)(CO)[C@@H]5CC[C@]43C)[C@@H]2C1 |  |  | pIC50 [5]: < 4.30
36 | C[C@H]1[C@H](C)CC[C@]2(C(=O)O)CC[C@]3(C)C(=CC[C@@H]4[C@@]5(C)C[C@@H](O)[C@H](O)C(C)(C)[C@@H]5CC[C@]43C)[C@H]12 [COROSOLIC ACID] |  |  | pIC50 [5]: 4.64
37 | C[C@@H](CC(=O)N1CCC(O)(Cn2cnc3cc(NC(=O)CCN4CCN(C)CC4)ccc3c2=O)CC1)c1ccccc1 |  |  | pIC50 [4]: 5.14 and 4.96
38 | CC1CS(=O)(=O)c2cc(NC(=O)c3cc([N+](=O)[O-])c(Sc4c(Cl)cncc4Cl)s3)ccc21 (stereo unspecified) | 6.44 | 7.12 | 
39 | CC1(C)CC[C@]2(C(=O)O)CC[C@]3(C)C(=CC[C@@H]4[C@@]5(C)CC[C@H](O)[C@@](C)(CO)[C@@H]5CC[C@]43C)[C@@H]2C1 [HEDERAGENIN] |  |  | pIC50 [5]: 4.47
40 | CN(C)CCOc1ccc(NC(=O)c2cc([N+](=O)[O-])c(Sc3c(Cl)cncc3Cl)s2)cc1 | 6.35 | 6.30 | 
41 | C=C(C)[C@@H]1CC[C@]2(C(=O)O)CC[C@]3(C)[C@H](CC[C@@H]4[C@@]5(C)CC[C@H](O)C(C)(C)[C@@H]5CC[C@]43C)[C@H]2C1 |  |  | pIC50 [5]: 4.48
42 | C[C@@H](CC(=O)N1CCC(O)(Cn2cnc3cc(Cl)ccc3c2=O)CC1)c1ccccc1 |  |  | pIC50 [4]: 4.40
43 | O=C(CCc1ccccc1)N1CCC(Cn2cnc3cc(Cl)ccc3c2=O)CC1 |  |  | pIC50 [4]: < 4.00
44 | N#CC1(Cn2cnc3cc(Cl)ccc3c2=O)CCN(C(=O)CCc2ccccc2)CC1 |  |  | pIC50 [4]: < 4.00
45 | CC(=O)O[C@H]1CC[C@]2(C)[C@H]3CC=C4[C@@H]5[C@@H](C)[C@H](C)CC[C@]5(C(=O)O)CC[C@@]4(C)[C@]3(C)CC[C@H]2C1(C)C [O-ACETYLURSOLIC ACID] |  |  | pIC50 [5]: < 4.30
46 | CC1(C)[C@H](O)CC[C@]2(C)[C@H]3C(=O)C=C4[C@@H]5C[C@@](C)(C(=O)O)CC[C@]5(C)CC[C@]4(C)[C@@]3(C)CC[C@@H]12 |  |  | pIC50 [5]: < 4.30
47 | O=C(Cc1ccccc1)N1CCC(O)(Cn2cnc3cc(Cl)ccc3c2=O)CC1 |  |  | pIC50 [4]: < 4.00
48 | O=C(Nc1cccc(S(=O)(=O)C2CC2)c1)c1cc([N+](=O)[O-])c(Sc2c(Cl)cncc2Cl)s1 | 5.80 | 6.25 | 
49 | CC(C)C(CC(=O)N1CCC(O)(Cn2cnc3cc(NC(=O)CCN4CCN(C)CC4)ccc3c2=O)CC1)c1ccccc1 (stereo unspecified) |  |  | pIC50 [4]: 6.57
50 | CC1(C)CC[C@]2(C(=O)O)[C@H](O)C[C@]3(C)C(=CC[C@@H]4[C@@]5(C)C[C@H](O)[C@H](O)[C@@](C)(CO)[C@@H]5CC[C@]43C)[C@@H]2C1 |  |  | pIC50 [5]: < 4.30
